Test results taken from patent publication US20090227607A1, “DEAZAPURINES USEFUL AS INHIBITORS OF JANUS KINASES” (priority 2006, published 2009).

How the values were obtained:
JAK3 = molecular target: T1, JAK3 (Homo sapiens, UniProt P52333); assay: JAK3 Inhibition Assay; assay type: biochemical; details: 1 μM poly(Glu)4Tyr, 5 μM ATP, 1 nM JAK3, 25° C.; read-out: JAK3 enzyme inhibition data (Ki)
T1 sequence (P52333 1-1124): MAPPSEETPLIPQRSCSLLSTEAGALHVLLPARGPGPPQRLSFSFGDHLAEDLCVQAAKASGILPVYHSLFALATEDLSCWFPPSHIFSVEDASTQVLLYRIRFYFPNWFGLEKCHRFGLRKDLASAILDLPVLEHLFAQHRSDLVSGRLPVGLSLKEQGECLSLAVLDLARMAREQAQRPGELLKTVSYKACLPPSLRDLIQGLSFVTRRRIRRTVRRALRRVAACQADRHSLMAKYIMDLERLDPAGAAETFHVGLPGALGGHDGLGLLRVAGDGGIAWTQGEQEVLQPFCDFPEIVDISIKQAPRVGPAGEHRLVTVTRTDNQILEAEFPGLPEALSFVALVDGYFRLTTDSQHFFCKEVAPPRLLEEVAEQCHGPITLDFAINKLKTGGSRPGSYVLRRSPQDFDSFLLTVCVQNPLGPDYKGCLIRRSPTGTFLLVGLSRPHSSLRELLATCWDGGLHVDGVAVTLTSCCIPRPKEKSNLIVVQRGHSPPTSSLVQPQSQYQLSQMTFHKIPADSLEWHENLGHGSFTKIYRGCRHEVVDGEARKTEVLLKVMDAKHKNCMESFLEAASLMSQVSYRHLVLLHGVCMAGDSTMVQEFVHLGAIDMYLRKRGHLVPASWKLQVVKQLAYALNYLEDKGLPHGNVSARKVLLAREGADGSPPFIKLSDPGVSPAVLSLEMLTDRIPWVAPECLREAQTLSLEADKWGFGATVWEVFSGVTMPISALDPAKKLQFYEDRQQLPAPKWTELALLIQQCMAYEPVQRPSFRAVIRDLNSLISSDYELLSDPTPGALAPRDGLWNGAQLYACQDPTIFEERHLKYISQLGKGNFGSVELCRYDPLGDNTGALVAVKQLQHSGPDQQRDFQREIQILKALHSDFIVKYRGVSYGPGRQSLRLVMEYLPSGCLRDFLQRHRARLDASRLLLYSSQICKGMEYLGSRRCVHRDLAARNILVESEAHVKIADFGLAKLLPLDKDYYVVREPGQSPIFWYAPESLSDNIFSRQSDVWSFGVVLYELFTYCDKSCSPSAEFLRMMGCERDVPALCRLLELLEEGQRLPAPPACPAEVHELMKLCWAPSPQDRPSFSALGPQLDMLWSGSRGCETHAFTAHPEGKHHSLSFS
Protocol: (§1) Compounds were screened for their ability to inhibit JAK3 using the assay shown below. Reactions were carried out in a kinase buffer containing 100 mM HEPES (pH 7.4), 1 mM DTT, 10 mM MgCl2, 25 mM NaCl, and 0.01% BSA. Substrate concentrations in the assay were 5 μM ATP (200 uCi/μmole ATP) and 1 μM poly(Glu)4Tyr. Reactions were carried out at 25° C. and 1 nM JAK3.
(§2) To each well of a 96 well polycarbonate plate was added 1.5 μl of a candidate JAK3 inhibitor along with 50 μl of kinase buffer containing 2 μM poly(Glu)4Tyr and […]. This was then mixed and […] of kinase buffer containing 2 nM JAK3 enzyme was added to start the reaction. After 20 minutes at room temperature (25° C.), the reaction was stopped with 50 μl of 20% trichloroacetic acid (TCA) that also contained 0.4 mM ATP. The entire contents of each well were then transferred to a 96 well glass fiber filter plate using a TomTek Cell Harvester. After washing, 60 μl of scintillation fluid was added and ^33P incorporation detected on a Perkin Elmer TopCount.
(§3) Tables 5 and 6 depict enzyme inhibition data (Ki) for certain exemplary compounds. Compound numbers in Tables 5 and 6 correspond to those compounds depicted in Tables 1 and 2, respectively.

JAK-2 enzyme = JAK-2 enzyme (Homo sapiens, UniProt O60674); assay: JAK2 Inhibition Assay; assay type: biochemical; details: 15 μM poly(Glu)4Tyr, 12 μM ATP, 25° C.
Sequence of JAK-2 enzyme (O60674 whole entry, species assumed): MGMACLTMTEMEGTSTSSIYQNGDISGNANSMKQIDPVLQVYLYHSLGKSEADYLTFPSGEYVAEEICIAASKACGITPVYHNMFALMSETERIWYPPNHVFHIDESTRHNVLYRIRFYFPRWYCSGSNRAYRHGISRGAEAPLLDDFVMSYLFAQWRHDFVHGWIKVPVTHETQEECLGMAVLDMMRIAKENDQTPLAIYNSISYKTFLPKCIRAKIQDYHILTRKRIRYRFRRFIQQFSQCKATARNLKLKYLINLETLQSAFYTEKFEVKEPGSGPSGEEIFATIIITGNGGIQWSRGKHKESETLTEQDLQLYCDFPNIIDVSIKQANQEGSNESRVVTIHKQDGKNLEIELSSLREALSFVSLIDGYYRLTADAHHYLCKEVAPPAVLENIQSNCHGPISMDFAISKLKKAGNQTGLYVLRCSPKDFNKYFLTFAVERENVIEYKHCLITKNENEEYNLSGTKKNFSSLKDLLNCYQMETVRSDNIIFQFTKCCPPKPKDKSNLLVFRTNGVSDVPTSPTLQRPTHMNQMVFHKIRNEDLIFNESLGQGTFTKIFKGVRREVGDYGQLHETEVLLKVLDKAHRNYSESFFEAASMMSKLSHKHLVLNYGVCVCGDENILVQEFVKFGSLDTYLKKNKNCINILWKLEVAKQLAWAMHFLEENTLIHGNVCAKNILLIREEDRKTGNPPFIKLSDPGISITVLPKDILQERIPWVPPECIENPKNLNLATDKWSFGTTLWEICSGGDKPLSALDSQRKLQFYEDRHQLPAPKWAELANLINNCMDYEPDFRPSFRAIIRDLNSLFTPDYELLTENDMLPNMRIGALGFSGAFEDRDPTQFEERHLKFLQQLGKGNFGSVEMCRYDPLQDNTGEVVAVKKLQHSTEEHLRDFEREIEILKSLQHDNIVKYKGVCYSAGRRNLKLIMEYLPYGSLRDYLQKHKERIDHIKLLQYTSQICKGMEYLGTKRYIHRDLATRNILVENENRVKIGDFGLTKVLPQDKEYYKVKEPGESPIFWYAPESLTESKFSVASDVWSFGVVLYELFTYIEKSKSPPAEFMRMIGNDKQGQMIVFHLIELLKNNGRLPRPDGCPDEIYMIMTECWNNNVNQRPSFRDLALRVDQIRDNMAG
Protocol: as §1, §2
The assays were as described above in Example 36 except that JAK-2 enzyme was used, the final poly(Glu)4Tyr concentration was 15 μM, and final ATP concentration was 12 μM.
as §3

Structure (SMILES)	Ki (JAK3) [nM]	Ki (JAK-2 enzyme) [nM]
C=CC(=O)c1c[nH]c2ncnc(-c3ccoc3)c12 [Compound 253]	100 to 500	500 to 5000
Cn1cc(-c2ncnc3[nH]ccc23)cc1C(=O)N(CCC#N)CC1CC1 [Compound 226]	< 100	< 100
NC(=O)C1CCCN1C(=O)c1cc(-c2ncnc3[nH]ccc23)c[nH]1 (centres unmarked) [Compound 47]	100 to 500	100 to 500
CC(=O)NCCCC(=O)Nc1nc(-c2ncnc3[nH]ccc23)cs1 [Compound 168]	100 to 500	< 100
CC(C)Cn1cc(-c2ncnc3[nH]cc(Cl)c23)cn1 [Compound 166]	100 to 500	< 100
C[C@@H]1CC[C@H](C)N1C(=O)c1cc(-c2ncnc3[nH]ccc23)c[nH]1 [Compound 132]	100 to 500	< 100
N#CCCN(CC1CC1)C(=O)c1ccc(-c2ncnc3[nH]ccc23)o1 [Compound 125]	< 100	< 100
CC(C)CN(C)C(=O)c1cc(-c2ncnc3[nH]ccc23)c[nH]1 [Compound 27]	100 to 500	< 100
O=C(NC1CCCC1)c1cc(-c2ncnc3[nH]ccc23)c[nH]1 [Compound 13]	< 100	< 100
CC(O)CNC(=O)C(C)n1cc(-c2ncnc3[nH]ccc23)cn1 (centres unmarked) [Compound 80]	100 to 500	500 to 5000
Nc1[nH]ncc1-c1ncnc2[nH]ccc12 [Compound 130]	100 to 500	100 to 500
C=CCN(C(=O)c1cc(-c2ncnc3[nH]ccc23)co1)[C@@H](C)c1ccccc1 [Compound 248]	100 to 500	< 100
FC(F)(F)CCCn1cc(-c2ncnc3[nH]ccc23)cn1 [Compound 6]	100 to 500	< 100
CC(C)CNC(=O)C(C)n1cc(-c2ncnc3[nH]ccc23)cn1 (centres unmarked) [Compound 74]	< 100	100 to 500
O=C(Nc1nc(-c2ncnc3[nH]ccc23)cs1)C(O)c1ccccc1 (centres unmarked) [Compound 101]	< 100	< 100
C#CCN(C(=O)c1cc(-c2ncnc3[nH]ccc23)c[nH]1)C1CCCCC1 [Compound 137]	100 to 500	< 100
N#CCCN(CC1CCCO1)C(=O)c1cc(-c2ncnc3[nH]ccc23)c[nH]1 (centres unmarked) [Compound 136]	100 to 500	< 100
C#CCN(C)C(=O)c1cc(-c2ncnc3[nH]ccc23)c[nH]1 [Compound 24]	100 to 500	< 100
N#CCCN(Cc1ccco1)C(=O)c1cc(-c2ncnc3[nH]ccc23)c[nH]1 [Compound 135]	< 100	< 100
C=CCN(C(=O)c1cc(-c2ncnc3[nH]ccc23)c[nH]1)C(C)c1ccccc1 (centres unmarked) [Compound 114]	< 100	< 100
N#CCCN(Cc1ccccc1)C(=O)c1cc(-c2ncnc3[nH]ccc23)c[nH]1 [Compound 29]	< 100	< 100
CCCCC(C)n1cc(-c2ncnc3[nH]ccc23)cn1 (centres unmarked) [Compound 93]	< 100	< 100
CN1CC(C(=O)Nc2nc(-c3ncnc4[nH]ccc34)cs2)CC1=O (centres unmarked) [Compound 172]	100 to 500	< 100
O=C(c1cc(-c2ncnc3[nH]ccc23)c[nH]1)N1CCC(O)C1 (centres unmarked) [Compound 56]	500 to 5000	100 to 500
CC(C(=O)NC1CCCC1)n1cc(-c2ncnc3[nH]ccc23)cn1 (centres unmarked) [Compound 75]	< 100	100 to 500
CCC(CC)NC(=O)c1cc(-c2ncnc3[nH]ccc23)c[nH]1 [Compound 11]	100 to 500	< 100

Structure (SMILES)	Ki (JAK3) [nM]	Ki (JAK-2 enzyme) [nM]
O=C(c1cc(-c2ncnc3[nH]ccc23)co1)N(CC1CC1)CC(F)(F)F [Compound 231, N-(cyclopropylmethyl)-4-(7H-pyrrolo[2,3-d]pyrimidin-4-yl)-N-(2,2,2-trifluoroethyl)furan-2-carboxamide]	< 100	< 100
Cc1c[nH]c2ncnc(-c3c[nH]c(C(=O)N(CCC(F)(F)F)CC4CC4)c3)c12 [Compound 208]	< 100	< 100
O=C(NCC(F)F)c1cc(-c2ncnc3[nH]ccc23)c[nH]1 [Compound 10]	< 100	< 100
CN(CC(F)(F)F)C(=O)c1cc(-c2ncnc3[nH]ccc23)c[nH]1 [Compound 55]	100 to 500	< 100
CCN(C(=O)CC(C)C)c1nc(-c2ncnc3[nH]ccc23)cs1 [Compound 104]	< 100	< 100
c1nc(-c2cnn(C3CCCC3)c2)c2cc[nH]c2n1 [Compound 36]	< 100	< 100
CN(C)CCCN(C)C(=O)c1cc(-c2ncnc3[nH]ccc23)c[nH]1 [Compound 44]	500 to 5000	500 to 5000
CC(C)CCC(=O)Nc1nc(-c2ncnc3[nH]ccc23)cs1 [Compound 72]	< 100	< 100
C=CCN(C(=O)CC(C)C)c1nc(-c2ncnc3[nH]ccc23)cs1 [Compound 128]	< 100	< 100
CCC(CO)NC(=O)C(C)n1cc(-c2ncnc3[nH]ccc23)cn1 (centres unmarked) [Compound 82]	100 to 500	100 to 500
O=C(NCC(F)(F)F)c1cc(-c2ncnc3[nH]ccc23)c[nH]1 [Compound 7]	< 100	< 100
CCN(Cc1ccncc1)C(=O)c1cc(-c2ncnc3[nH]ccc23)c[nH]1 [Compound 48]	< 100	< 100
CC(C)CN(CCC#N)C(=O)c1ccc(-c2ncnc3[nH]ccc23)o1 [Compound 192]	< 100	< 100
CS(=O)(=O)N1CCC(C(=O)Nc2nc(-c3ncnc4[nH]ccc34)cs2)CC1 [Compound 179]	< 100	< 100
COC(=O)[C@@H]1CC[C@H](C(=O)Nc2nc(-c3ncnc4[nH]ccc34)cs2)C1 [Compound 182]	100 to 500	< 100
COC1CCC(C(=O)Nc2nc(-c3ncnc4[nH]ccc34)cs2)CC1 (centres unmarked) [Compound 117]	100 to 500	< 100
N#CCCN(CC1CC1)C(=O)c1coc(-c2ncnc3[nH]ccc23)c1 [Compound 183]	< 100	< 100
O=C(c1cc(-c2ncnc3[nH]ccc23)c[nH]1)N1CCC(CO)CC1 [Compound 42]	500 to 5000	100 to 500
FC(F)(F)CN(Cc1coc(-c2ncnc3[nH]ccc23)c1)CC1CC1 [Compound 131]	< 100	< 100
CC#CCN(C(=O)c1cc(-c2ncnc3[nH]ccc23)c[nH]1)C1CCCCC1 [Compound 190]	500 to 5000	100 to 500
CCCN(C)C(=O)c1cc(-c2ncnc3[nH]ccc23)cn1C [Compound 234]	500 to 5000	< 100
CCN(Cc1ccccc1)C(=O)c1cc(-c2ncnc3[nH]cc(Cl)c23)c[nH]1 [Compound 199]	< 100	< 100
C[C@H](O)CNC(=O)c1cc(-c2ncnc3[nH]ccc23)c[nH]1 [Compound 140]	100 to 500	< 100
O=C(CCC(F)(F)F)Nc1nc(-c2ncnc3[nH]ccc23)cs1 [Compound 99]	< 100	< 100
C=CCCC(=O)Nc1nc(-c2ncnc3[nH]ccc23)cs1 [Compound 69]	< 100	< 100
O=C1[C@H]2CCCC[C@@H]2C(=O)N1c1nc(-c2ncnc3[nH]ccc23)cs1 [Compound 180]	100 to 500	100 to 500
